Test results reported in patent US10106559B2, “Substituted tetrahydrocarbazole and carbazole carboxamide compounds” (BRISTOL-MYERS SQUIBB COMPANY, priority 2013, dated 2018).

Key:
human recombinant Btk = human recombinant Btk (Homo sapiens (Human), UniProt Q06187); test: Human Recombinant Btk Enzyme Assay; type: biochemical
[1] = tested on: CD69 expression on B cells in human whole blood; test: Whole Blood Assay of BCR-Stimulated CD69 Expression on B Cells; type: cell-based; details: B-cell
Jak2 tyrosine kinase = Jak2 tyrosine kinase (Homo sapiens (Human), UniProt O60674); test: Jak2 Tyrosine Kinase Assay; type: biochemical; details: for Ratio of Jak2/Btk IC50 values: selectivity: Jak2 IC50 divided by Btk IC50
Jak2 tyrosine kinase, sequence (O60674 whole entry): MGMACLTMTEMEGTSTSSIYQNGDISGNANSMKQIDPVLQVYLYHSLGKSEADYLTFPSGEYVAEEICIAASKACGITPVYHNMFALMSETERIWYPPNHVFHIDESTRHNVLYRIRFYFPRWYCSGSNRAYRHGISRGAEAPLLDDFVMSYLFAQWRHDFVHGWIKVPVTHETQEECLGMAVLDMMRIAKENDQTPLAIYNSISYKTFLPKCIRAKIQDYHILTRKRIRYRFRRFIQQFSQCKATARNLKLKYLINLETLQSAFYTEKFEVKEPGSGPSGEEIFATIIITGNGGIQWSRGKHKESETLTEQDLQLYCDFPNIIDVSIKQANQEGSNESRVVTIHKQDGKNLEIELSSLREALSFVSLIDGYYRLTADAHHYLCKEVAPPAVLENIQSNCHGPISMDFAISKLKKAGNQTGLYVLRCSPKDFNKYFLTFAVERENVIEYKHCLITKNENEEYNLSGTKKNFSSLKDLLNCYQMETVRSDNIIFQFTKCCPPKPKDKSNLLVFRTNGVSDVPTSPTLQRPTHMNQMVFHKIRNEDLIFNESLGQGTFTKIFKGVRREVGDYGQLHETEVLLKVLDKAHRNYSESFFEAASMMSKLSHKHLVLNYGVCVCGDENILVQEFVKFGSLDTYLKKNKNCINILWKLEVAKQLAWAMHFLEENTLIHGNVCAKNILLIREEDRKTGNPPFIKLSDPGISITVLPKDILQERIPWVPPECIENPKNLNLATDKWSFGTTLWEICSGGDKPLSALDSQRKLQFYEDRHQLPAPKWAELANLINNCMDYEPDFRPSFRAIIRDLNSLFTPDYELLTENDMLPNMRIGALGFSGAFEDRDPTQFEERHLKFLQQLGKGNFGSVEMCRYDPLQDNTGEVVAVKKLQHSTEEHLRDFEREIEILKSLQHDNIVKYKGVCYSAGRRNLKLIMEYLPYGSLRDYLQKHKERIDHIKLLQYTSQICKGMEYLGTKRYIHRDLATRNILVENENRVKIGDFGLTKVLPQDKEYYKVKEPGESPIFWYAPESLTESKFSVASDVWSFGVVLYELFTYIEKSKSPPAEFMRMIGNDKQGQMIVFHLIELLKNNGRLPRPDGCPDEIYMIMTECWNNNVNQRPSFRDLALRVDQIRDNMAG

human recombinant Btk, sequence (Q06187 whole entry): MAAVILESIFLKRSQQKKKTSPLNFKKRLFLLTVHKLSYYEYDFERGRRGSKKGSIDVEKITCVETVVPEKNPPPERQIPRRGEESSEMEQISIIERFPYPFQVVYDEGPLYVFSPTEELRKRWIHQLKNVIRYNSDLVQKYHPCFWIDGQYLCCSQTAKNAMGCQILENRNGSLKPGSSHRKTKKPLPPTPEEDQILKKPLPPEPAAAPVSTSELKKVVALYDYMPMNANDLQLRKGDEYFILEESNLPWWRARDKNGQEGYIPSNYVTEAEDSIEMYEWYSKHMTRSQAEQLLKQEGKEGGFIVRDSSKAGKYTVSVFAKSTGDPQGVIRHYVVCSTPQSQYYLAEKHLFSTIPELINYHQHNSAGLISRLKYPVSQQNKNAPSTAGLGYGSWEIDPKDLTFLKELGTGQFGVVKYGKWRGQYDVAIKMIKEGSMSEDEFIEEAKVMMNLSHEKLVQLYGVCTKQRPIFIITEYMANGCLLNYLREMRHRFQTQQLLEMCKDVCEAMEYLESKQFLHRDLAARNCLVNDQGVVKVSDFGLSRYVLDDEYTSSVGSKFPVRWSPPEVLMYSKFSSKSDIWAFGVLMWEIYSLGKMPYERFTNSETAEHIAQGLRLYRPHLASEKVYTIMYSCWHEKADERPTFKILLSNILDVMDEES

| IC50 (human recombinant Btk) | IC50 [1] | IC50 (Jak2 tyrosine kinase) | Ratio of Jak2/Btk IC50 values (Jak2 tyrosine kinase) | SMILES |
| --- | --- | --- | --- | --- |
| 0.00033 µM | 0.025 µM | 1.1 µM | 3300 | Cc1c(-c2c(Cl)cc(C(N)=O)c3[nH]c4cc(C(C)(C)O)ccc4c23)cccc1-n1c(=O)[nH]c2c(F)cc(F)cc2c1=O (single isomer, unassigned) [Example 48] |
| 0.00032 µM | – | 1.2 µM | 3800 | Cc1c(-c2c(F)cc(C(N)=O)c3[nH]c4cc(C(C)(C)O)ccc4c23)cccc1-n1c(=O)[nH]c2c(F)cc(F)cc2c1=O (single isomer, unassigned) [Example 50] |
| 0.0003 µM | 0.19 µM | > 2 µM | >6700 | Cc1c(-c2c(F)cc(C(N)=O)c3[nH]c4cc(C(C)(C)O)ccc4c23)cccc1-n1c(=O)[nH]c2cc(F)ccc2c1=O (single isomer, unassigned) [Example 51] |
| 0.0011 µM | – | 2.2 µM | 2000 | Cc1c(-c2c(F)cc(C(N)=O)c3[nH]c4cc(C(C)(C)O)ccc4c23)cccc1-n1c(=O)[nH]c2c(Cl)cccc2c1=O (single isomer, unassigned) [Example 53] |
| 0.00035 µM | – | 1.2 µM | 3400 | Cc1c(-c2c(F)cc(C(N)=O)c3[nH]c4cc(C(C)(C)O)ccc4c23)cccc1-n1c(=O)[nH]c2c(Cl)cccc2c1=O (single isomer, unassigned) [Example 54] |
| 0.00034 µM | 0.089 µM | – | – | Cc1cc(C(N)=O)c2[nH]c3cc(C(C)(C)O)ccc3c2c1-c1cccc(-n2c(=O)[nH]c3c(F)cccc3c2=O)c1C (single isomer, unassigned) [Example 66] |
| – | 0.075 µM | – | 630 | Cc1c(-c2c(F)cc(C(N)=O)c3[nH]c4c(c23)CC[C@H](C(C)(C)O)C4)cccc1-n1c(=O)cc2c(F)cccn2c1=O (single isomer, unassigned) [Example 68] |
| 0.00049 µM | 0.2 µM | 0.77 µM | 1600 | Cc1c(-c2c(C#N)cc(C(N)=O)c3[nH]c4cc(C(C)(C)O)ccc4c23)cccc1-n1c(=O)cc2c(Cl)cccn2c1=O (single isomer, unassigned) [Example 72] |
| – | 0.18 µM | 4.3 µM | – | Cc1c(-c2c(F)cc(C(N)=O)c3[nH]c4cc(C(C)(C)O)ccc4c23)cccc1-n1c(=O)c2cccc(F)c2n(C)c1=O (single isomer, unassigned) [Example 74] |
| – | 0.2 µM | – | 690 | COc1cccn2c(=O)n(-c3cccc(-c4c(Cl)cc(C(N)=O)c5[nH]c6cc(C(C)(C)O)ccc6c45)c3C)c(=O)cc12 [Example 37, 3-Chloro-7-(2-hydroxypropan-2-yl)-4-(3-(5-methoxy-1,3-dioxo-1H-pyrido[1,2-c]pyrimidin-2(3H)-yl)-2-methylphenyl)-9H-carbazole-1-carboxamide] |
| 0.00077 µM | 0.017 µM | > 2 µM | >2600 | Cc1c(-c2c(F)cc(C(N)=O)c3[nH]c4cc(C(C)(C)O)ccc4c23)cccc1-n1c(=O)[nH]c2c(F)cc(F)cc2c1=O [Example 49] |
| – | 0.066 µM | – | 930 | Cc1c(-c2c(F)cc(C(N)=O)c3[nH]c4cc(CCO)ccc4c23)cccc1-n1c(=O)cc2c(F)cccn2c1=O [Example 70] |
| 0.00041 µM | – | 0.8 µM | – | Cc1cc(C(N)=O)c2[nH]c3cc(C(C)(C)O)ccc3c2c1-c1cccc(-n2c(=O)cc3c(Cl)cccn3c2=O)c1C [Example 71] |
